Source: ChEMBL document CHEMBL3638916, “Substituted 3-arylsulfonyl-pyrazolo[1,5-A]pyrimidines, serotonin 5-HT6 receptor antagonists and methods for the production and use thereof” (2013)

Columns and labels:
[1] = target: T1, 5-hydroxytryptamine receptor 6 (Homo sapiens, UniProt P50406); assay: Functional Assay: Determination of antagonistic activity of compounds of the general formula 1 towards 5-HT6 receptors. Compounds of the general formula 1 were tested for their ability to prevent 5-HT6 receptors activation by serotonin. HEK 293 cells (cells of human embryo's kidney) with artificially expressed 5-HT6 receptor, activation of which by serotonin leads to increasing the concentration of intracellular cAMP, were used. The level of intracellular cAMP was determined using reagent kit LANCE cAMP (PerkinElmer) according to the method described by the manufacturer of the kit [http://las.perkinelmer.com/content/Manuals/MAN_LANCEcAMP384KitUser.pdf]. Effectiveness of the compounds was estimated by their ability to reduce the level of intracellular cAMP induced by serotonin. Table 4 presents IC50 values for the compounds of general formula 1 in the setting of functional assay for serotonin 5-HT6 receptor inhibition. The data given testify their moderate or high antagonistic activity.; format: cell-based
[2] = target: T1, 5-hydroxytryptamine receptor 6; assay: Mol. Pharmacol. 43:320-327, 1993].

T1 sequence (P50406 whole entry): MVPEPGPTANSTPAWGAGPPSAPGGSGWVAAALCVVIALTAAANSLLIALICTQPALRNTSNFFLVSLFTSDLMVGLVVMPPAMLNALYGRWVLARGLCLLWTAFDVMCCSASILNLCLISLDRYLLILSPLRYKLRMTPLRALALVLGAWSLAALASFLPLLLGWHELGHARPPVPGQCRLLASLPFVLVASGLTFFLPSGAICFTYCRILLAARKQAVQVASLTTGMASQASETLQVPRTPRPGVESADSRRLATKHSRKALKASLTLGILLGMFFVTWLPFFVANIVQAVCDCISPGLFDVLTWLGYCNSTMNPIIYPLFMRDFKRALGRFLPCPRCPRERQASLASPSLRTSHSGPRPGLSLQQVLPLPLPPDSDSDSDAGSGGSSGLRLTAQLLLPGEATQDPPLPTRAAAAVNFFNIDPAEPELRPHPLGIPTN

IC50 [1]: 8.4 µM
IC50 [2]: 0.05 µM
SMILES: CSc1nn2c(C)c(Br)c(C)nc2c1S(=O)(=O)c1ccccc1
